{"source": "patent US20230096528A1", "about": "“Pharmaceutical Composition for Treatment or Prevention of Multiple Inflammatory disorders” (priority 2019, published 2023)", "key": {"[1]": {"system": "mouse model of acute lung injury", "assay": "Second modified acute lung injury plus hyperthermia study (Example 8)", "conditions": "for Tolerability of three days of repeat dosing: mouse, in vivo", "experimental": "Lung lavage fluid was measured and cytokine analysis. Statistics was one-way ANOVA followed by Tukey's multiple comparison post hoc test for data with normal distribution; Kruskal-Wallis test followed by Dunn's multiple comparison post hoc test for data with skewed distribution; and the ROUT method for identifying outliers. Control or drug administered for 3 days, then LPS at 50 μL of 1 mg/ml delivered intratracheally with a Penn Century needle where a core temperature of 39 C at 24 hours post LPS and then sacrifice to measure lung lavage fluid protein concentration and serum cytokine levels.\nThe same procedure was used as in Example 7. Starting three days before the induction of lung injury, groups of six CD-1 mice each were treated prophylactically with vehicle or 92.4 mg/kg denatonium acetate (DA) (administered by twice-daily (BID) oral gavage (PO)) or with 3 mg/kg DA (administered by once-daily (QD) intraperitoneal (IP) injection). On Day 0, lung injury was induced by intratracheal instillation with 50 μL of 1 mg/mL bacterial lipopolysaccharide (LPS), and hyperthermia was induced by placing the animals in a 39° C. incubator. On Day 1 (i.e., 24 hours after induction), animals were euthanized and bronchoalveolar lavage fluid (BALF) was collected. The BALF specimens were assessed for cytokine concentrations (using a multiplex bead-based assay), and protein levels, and neutrophil counts (by fluorescence-activated cell sorting (FACS)). Additionally, lungs were collected, fixed, stained with Masson's trichrome, and assessed histologically."}, "[2]": {"system": "murine air pouch model of inflammation", "assay": "Murine air pouch model of inflammation, LPS induction (Example 2)", "format": "in vivo, C57BL/6 mice", "experimental": "This example provides the results of investigating DA to modulate immune response in a murine air pouch model of inflammation. […] What was measured was infiltrating cell counts with air pouch exudates, IL-6 levels in air pouch exudates by an ELISA assay (R&D Systems Cat. No. M6000B), and multiple cytokine analysis (Mouse 32Plex Kit MilliporeSigma Cat. No. MCYTMAG70PMX32BK).\nDuarte et al., Current Protocols in Pharmacology, 5.6.1-5.6.8 Mar. 2012, describes “The subcutaneous air pouch is an in vivo model that can be used to study acute and chronic inflammation, the resolution of the inflammatory response, and the oxidative stress response. Injection of irritants into an air pouch in rats or mice induces an inflammatory response that can be quantified by the volume of exudate produced, the infiltration of cells, and the release of inflammatory mediators. The model presented in this unit has been extensively used to identify potential anti-inflammatory drugs.” It can be used to study localized inflammation without systemic effects. But in this case the drug was administered orally, by gavage BID.\nTest administration was 5 ml/kg body weight BID dosing with 8 hour intervals. The air pouch was created in each test BL6 mouse by sc injection of 1.5 ml/mouse of sterile air on day 0 and 1.5 ml/mouse of sterile air on day 3. Compounds (or control distilled water) were administered BID on day −2. LPS (0.75 mg/animal in 1 ml endotoxin free PBS) was administered at hour 0 or one hour after dosing with test compounds. Plasma samples were collected at termination and exudates of the air pouches for all groups. Cell count analysis and IL-6 assays were conducted at the animal facility and plasma and exudate samples were sent out for cytokine analysis."}, "[3]": {"system": "leptin-deficient (ob/ob) mice", "assay": "Body weight and biomarker study in leptin-deficient (ob/ob) mice, 56 days (Example 10)", "format": "in vivo", "conditions": "50 mg/kg gavage BID", "experimental": "Therefore, ob/ob mice are a predictive in vivo model for these indications. This example provides results of a study of DA plus another compound (CQL) on body weight in leptin-deficient (ob/ob) mice. Vehicle group (N=14) were treated with distilled water by gavage BID, and DA (N=14) at a dose of 50 mg/kg by gavage BID. The study period was for 56 days+2-3 days testing period afterward. Body weight change measured 3× per week, food intake was measure twice per week, metabolic biomarkers (blood glucose, blood insulin, blood HbA1c, HDL, LDL, triglyceride and bile acid) were measured at beginning and end of study. Cytokine analysis was measured at end on Day 56."}, "[4]": {"conditions": "oral 92.4 mg/kg BID, vs vehicle"}, "[5]": {"conditions": "96.4 mg/kg BID gavage pre-treatment, LPS, vs vehicle"}, "[6]": {"conditions": "higher dose of DA, air pouch model, LPS"}, "[7]": {"conditions": "day 56, no significant difference"}}, "data": [{"smiles": "CC(=O)[O-].CC[N+](CC)(CC(=O)Nc1c(C)cccc1C)Cc1ccccc1", "note": "[DA, denatonium acetate]", "values": [{"measurement": "Mice found dead on Day 1", "setting": "[1]; 92.4 mg/kg PO group, within 24 h after LPS instillation, also one vehicle-dosed, not attributed to test article", "value": "one"}, {"measurement": "BALF neutrophil counts (by FACS assay)", "setting": "[1]; IP 3 mg/kg QD", "value": "nominal decreases"}, {"measurement": "BALF protein concentrations", "setting": "[1]; IP 3 mg/kg QD", "value": "nominal (but nonsignificant) changes"}, {"measurement": "Number of 32 tested BALF cytokines significantly decreased compared to vehicle", "setting": "[1]; IP 3 mg/kg QD", "value": 10}, {"measurement": "Severity of lung pathology (by histological scoring)", "setting": "[1]; IP 3 mg/kg QD", "value": "nominal decreases"}, {"measurement": "G-CSF concentration in BALF", "setting": "[1]; IP 3 mg/kg QD, vs vehicle", "value": "significant decreases"}, {"measurement": "IL2 concentration in BALF", "setting": "[1]; IP 3 mg/kg QD, vs vehicle", "value": "significant decreases"}, {"measurement": "IL-3 concentration in BALF", "setting": "[1]; IP 3 mg/kg QD, vs vehicle", "value": "significant decreases"}, {"measurement": "IL-4 concentration in BALF", "setting": "[1]; IP 3 mg/kg QD, vs vehicle", "value": "significant decreases"}, {"measurement": "IL-13 concentration in BALF", "setting": "[1]; IP 3 mg/kg QD, vs vehicle", "value": "significant decreases"}, {"measurement": "IP-10 concentration in BALF", "setting": "[1]; IP 3 mg/kg QD, vs vehicle", "value": "significant decreases"}, {"measurement": "M-CSF concentration in BALF", "setting": "[1]; IP 3 mg/kg QD, vs vehicle", "value": "significant decreases"}, {"measurement": "MCP-1 concentration in BALF", "setting": "[1]; IP 3 mg/kg QD, vs vehicle", "value": "significant decreases"}, {"measurement": "MIG concentration in BALF", "setting": "[1]; IP 3 mg/kg QD, vs vehicle", "value": "significant decreases"}, {"measurement": "eotaxin concentration in BALF", "setting": "[1]; IP 3 mg/kg QD, vs vehicle", "value": "significant decreases"}, {"measurement": "Tolerability of three days of repeat dosing", "setting": "[1]; ip, 3 mg/kg", "value": "well-tolerated"}, {"measurement": "Tolerability of three days of repeat dosing", "setting": "[1]; po, 92.4 mg/kg", "value": "well-tolerated"}, {"measurement": "BALF neutrophil counts (by FACS assay)", "setting": "[1]; oral 92.4 mg/kg BID", "value": "nominal decreases"}, {"measurement": "BALF protein concentrations", "setting": "[1]; oral 92.4 mg/kg BID", "value": "nominal (but nonsignificant) changes"}, {"measurement": "Number of 32 tested BALF cytokines significantly decreased compared to vehicle", "setting": "[1]; oral 92.4 mg/kg BID", "value": 7}, {"measurement": "Severity of lung pathology (by histological scoring)", "setting": "[1]; oral 92.4 mg/kg BID", "value": "nominal decreases"}, {"measurement": "IL-2 concentration in BALF", "setting": "[1]; [4]", "value": "significant decreases"}, {"measurement": "IL-3 concentration in BALF", "setting": "[1]; [4]", "value": "significant decreases"}, {"measurement": "IL-10 concentration in BALF", "setting": "[1]; [4]", "value": "significant decreases"}, {"measurement": "IL-13 concentration in BALF", "setting": "[1]; [4]", "value": "significant decreases"}, {"measurement": "MCSF concentration in BALF", "setting": "[1]; [4]", "value": "significant decreases"}, {"measurement": "MIG concentration in BALF", "setting": "[1]; [4]", "value": "significant decreases"}, {"measurement": "IL-6 levels in air pouch exudates", "setting": "[2]; [5]", "value": "significantly lower"}, {"measurement": "Infiltrating cell count in air pouch exudates", "setting": "[2]; [5]", "value": "significantly lower"}, {"measurement": "IL-1b cytokine level", "setting": "[2]; [6]", "value": "significant reduction"}, {"measurement": "IL-10 cytokine level", "setting": "[2]; [6]", "value": "significant reduction"}, {"measurement": "IL-17 cytokine level", "setting": "[2]; [6]", "value": "significant reduction"}, {"measurement": "TNF-1a cytokine level", "setting": "[2]; [6]", "value": "significant reduction"}, {"measurement": "Infiltrating cell counts in air pouch exudates following LPS induction", "setting": "[2]; pre-treatment by gavage BID, in a dose-dependent manner", "value": "decreased"}, {"measurement": "Body weight", "setting": "[3]; 56 days", "value": "no significant effect"}, {"measurement": "Daily food consumption", "setting": "[3]; 56 days", "value": "no significant effect"}, {"measurement": "Serum HBA1c levels", "setting": "[3]; 56 days", "value": "no significant effect"}, {"measurement": "Serum HDL levels", "setting": "[3]; 56 days", "value": "no significant effects"}, {"measurement": "Serum glucose levels", "setting": "[3]; 56 days", "value": "significantly decreased"}, {"measurement": "Serum insulin levels", "setting": "[3]; 56 days", "value": "no significant effect"}, {"measurement": "Serum LDL levels", "setting": "[3]; 56 days, vs vehicle", "value": "significantly lowered"}, {"measurement": "Serum bile acids levels", "setting": "[3]; 56 days, vs vehicle", "value": "significantly increased"}, {"measurement": "Serum triglyceride levels", "setting": "[3]; 56 days, vs vehicle", "value": "significantly lowered"}, {"measurement": "IL-1β level decreased by, compared to vehicle group", "setting": "[3]; [7]", "value": 19.1, "unit": "%"}, {"measurement": "IL-6 level decreased by, compared to vehicle group", "setting": "[3]; [7]", "value": 61.4, "unit": "%"}, {"measurement": "MCP-1 level decreased by, compared to vehicle group", "setting": "[3]; [7]", "value": 20.9, "unit": "%"}, {"measurement": "RANTES level decreased by, compared to vehicle group", "setting": "[3]; [7]", "value": 1.7, "unit": "%"}]}]}
